Here are results for 35 compounds from ChEMBL document CHEMBL1122559, “Inhibition of human dihydrofolate reductase by 4,6-diamino-1,2-dihydro-2,2-dimethyl-1-(substituted-phenyl)-s-triazine s. A quantitative structure-activity relationship analysis” (J Med Chem, 1984).

This test has as its target T1, Dihydrofolate reductase (Homo sapiens) (UniProt P00374).
T1 sequence (whole entry): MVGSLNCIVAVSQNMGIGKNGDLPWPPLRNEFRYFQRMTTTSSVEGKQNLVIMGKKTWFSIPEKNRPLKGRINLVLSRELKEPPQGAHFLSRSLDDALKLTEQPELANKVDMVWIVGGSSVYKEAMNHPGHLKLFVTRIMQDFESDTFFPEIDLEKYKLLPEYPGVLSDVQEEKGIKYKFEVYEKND
Description: Inhibitory activity against human lymphoblastoid cell (WIL2) dihydrofolate reductase (DHFR)

`CCCCCCOc1ccc(N2C(N)=NC(N)=NC2(C)C)cc1` gave a Log 1/Ki app of 5.53.

In turn, `CC(C)(C)c1ccc(N2C(N)=NC(N)=NC2(C)C)cc1` showed a Log 1/Ki app of 5.66.

`CC1(C)N=C(N)N=C(N)N1c1ccc(C#Cc2ccccc2)cc1`: the Log 1/Ki app was found to be 5.42.

`CCCCCCCCCCCOc1ccc(N2C(N)=NC(N)=NC2(C)C)cc1` yielded a Log 1/Ki app of 5.68.

Turning to `Cc1cccc(SCc2ccc(N3C(N)=NC(N)=NC3(C)C)cc2)c1`, the Log 1/Ki app was 7.22.

`CC1(C)N=C(N)N=C(N)N1c1ccc(F)cc1`: the Log 1/Ki app is 6.15.

With `CC1(C)N=C(N)N=C(N)N1c1ccc(N)cc1`, the Log 1/Ki app came to 4.65.

In turn, `CC1(C)N=C(N)N=C(N)N1c1ccc(C#N)cc1` yielded a Log 1/Ki app of 3.69.

`CC1(C)N=C(N)N=C(N)N1c1ccc(OCc2ccc(Cl)c(Cl)c2)cc1` gave a Log 1/Ki app of 6.46.

In the case of `CC(=O)c1ccc(N2C(N)=NC(N)=NC2(C)C)cc1`, the Log 1/Ki app turned out to be 4.5.

`CC1(C)N=C(N)N=C(N)N1c1ccc(SCc2ccccc2)cc1` gave a Log 1/Ki app of 7.01.

`COc1ccc(N2C(N)=NC(N)=NC2(C)C)cc1` yielded a Log 1/Ki app of 5.31.

Compound `CCOC(=O)c1ccc(N2C(N)=NC(N)=NC2(C)C)cc1` had a Log 1/Ki app of 3.46.

As to `CC1(C)N=C(N)N=C(N)N1c1ccc(OCc2ccc(C(N)=O)cc2)cc1`, the Log 1/Ki app worked out at 7.23.

`CC1(C)N=C(N)N=C(N)N1c1ccc(OCC(=O)N2CCOCC2)cc1`: the Log 1/Ki app came out at 5.66.

Compound `CC1(C)N=C(N)N=C(N)N1c1ccc(O)cc1` had a Log 1/Ki app of 4.57.

Turning to `CC1(C)N=C(N)N=C(N)N1c1ccc(OCc2ccc(CO)cc2)cc1`, the Log 1/Ki app is 7.12.

Turning to `COC(=O)c1ccc(N2C(N)=NC(N)=NC2(C)C)cc1`, the Log 1/Ki app worked out at 3.85.

`CCCCCCCCCc1ccc(N2C(N)=NC(N)=NC2(C)C)cc1`: the Log 1/Ki app was found to be 6.52.

The compound `CCCCc1ccc(N2C(N)=NC(N)=NC2(C)C)cc1` came in with a Log 1/Ki app of 6.27.

The compound `CCCOc1ccc(N2C(N)=NC(N)=NC2(C)C)cc1` had a Log 1/Ki app of 5.57.

`CC1(C)N=C(N)N=C(N)N1c1ccc(I)cc1`: the Log 1/Ki app is 5.51.

Take `CC1(C)N=C(N)N=C(N)N1c1ccc(S(C)(=O)=O)cc1`: the Log 1/Ki app was 4.08.

Consider `CC1(C)N=C(N)N=C(N)N1c1ccc(Br)cc1`, for which the Log 1/Ki app was 5.76.

`CCCCCCCCCCCCOc1ccc(N2C(N)=NC(N)=NC2(C)C)cc1` showed a Log 1/Ki app of 5.85.

With `CC1(C)N=C(N)N=C(N)N1c1ccc(OCCOc2ccc(N)cc2)cc1`, the Log 1/Ki app was found to be 6.

As to `CC1(C)N=C(N)N=C(N)N1c1ccc(OCc2ccc(S(N)(=O)=O)cc2)cc1`, the Log 1/Ki app amounted to 7.21.

For the compound `CC1(C)N=C(N)N=C(N)N1c1ccc(CSc2ccccc2)cc1`, the Log 1/Ki app stood at 7.33.

`Cc1ccc(N2C(N)=NC(N)=NC2(C)C)cc1` yielded a Log 1/Ki app of 5.97.

With `CC1(C)N=C(N)N=C(N)N1c1ccc(OCc2ccccc2)cc1`, the Log 1/Ki app was found to be 6.93.

`CC1(C)N=C(N)N=C(N)N1c1ccc(SCc2ccc(Cl)cc2)cc1` yielded a Log 1/Ki app of 6.97.

`Cc1ccccc1SCc1ccc(N2C(N)=NC(N)=NC2(C)C)cc1` displayed a Log 1/Ki app of 7.18.

With `CC1(C)N=C(N)N=C(N)N1c1ccc(C(F)(F)F)cc1`, the Log 1/Ki app was 5.58.

`CC1(C)N=C(N)N=C(N)N1c1ccc(S(N)(=O)=O)cc1` gave a Log 1/Ki app of 3.81.

With `CC(=O)Nc1ccc(N2C(N)=NC(N)=NC2(C)C)cc1`, the Log 1/Ki app came out at 4.23.
